# Patent US20120165331A1, “Di/tri-aza-spiro-C9-C11alkanes” (priority 2010, published 2012)
# What was measured:
# human orexin 2 receptor = target: T1, human orexin 2 receptor (Homo sapiens, UniProt O43614); experiment: Calcium accumulation in cells (FLIPR), antagonism of orexin A, human orexin 2 receptor; format: cell-based; details: for Ki: calcium accumulation, antagonism of orexin A, Cheng-Prusoff corrected, read-out: FLIPR hOx2R Ki; for inhibition at 10 µM: measured at a concentration of 10 μM of compound, read-out: FLIPR hOx2R % inhibition
# T1 construct: expressed in transfected cells
# T1 sequence (O43614 1-444): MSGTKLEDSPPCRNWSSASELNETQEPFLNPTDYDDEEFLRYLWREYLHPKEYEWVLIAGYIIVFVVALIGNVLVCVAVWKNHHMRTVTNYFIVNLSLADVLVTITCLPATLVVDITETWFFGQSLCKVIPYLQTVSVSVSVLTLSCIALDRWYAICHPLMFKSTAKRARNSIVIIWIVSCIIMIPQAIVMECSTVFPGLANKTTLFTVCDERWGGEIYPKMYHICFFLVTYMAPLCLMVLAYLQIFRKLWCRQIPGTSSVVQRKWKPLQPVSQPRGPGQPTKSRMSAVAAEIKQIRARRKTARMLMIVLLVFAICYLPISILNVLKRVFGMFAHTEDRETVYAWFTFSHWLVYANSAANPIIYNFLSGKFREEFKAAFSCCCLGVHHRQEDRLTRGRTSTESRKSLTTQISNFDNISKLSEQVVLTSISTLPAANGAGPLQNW
# human orexin 1 receptor = target: T2, human orexin 1 receptor (Homo sapiens, UniProt O43613); experiment: Calcium accumulation in cells (FLIPR), antagonism of orexin A, human orexin 1 receptor; format: cell-based; details: for inhibition at 10 µM: measured at a concentration of 10 μM of compound, read-out: FLIPR hOx1R % inhibition; for Ki: calcium accumulation, antagonism of orexin A, Cheng-Prusoff corrected, read-out: FLIPR hOx1R Ki
# T2 construct: expressed in transfected cells
# T2 sequence (O43613 1-425): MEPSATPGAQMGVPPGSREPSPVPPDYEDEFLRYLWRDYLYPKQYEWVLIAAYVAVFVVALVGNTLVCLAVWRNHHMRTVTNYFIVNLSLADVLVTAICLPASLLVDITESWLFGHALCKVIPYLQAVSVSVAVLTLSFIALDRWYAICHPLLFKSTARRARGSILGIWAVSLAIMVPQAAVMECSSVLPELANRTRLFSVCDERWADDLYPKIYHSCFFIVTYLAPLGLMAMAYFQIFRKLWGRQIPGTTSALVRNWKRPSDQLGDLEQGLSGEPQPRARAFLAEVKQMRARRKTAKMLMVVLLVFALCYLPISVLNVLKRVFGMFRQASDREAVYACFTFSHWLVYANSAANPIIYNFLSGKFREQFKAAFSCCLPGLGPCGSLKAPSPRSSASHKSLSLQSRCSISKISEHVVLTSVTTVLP
Compound,Ki (human orexin 2 receptor) [nM],inhibition at 10 µM (human orexin 1 receptor) [%],Ki (human orexin 1 receptor) [nM],inhibition at 10 µM (human orexin 2 receptor) [%]
"Cc1cncc(N2CCC3(CC2)COCC(=O)N3Cc2cccc3[nH]ccc23)n1 [Example 8.14, 1-((1H-Indol-4-yl)methyl)-9-(6-methylpyrazin-2-yl)-4-oxa-1,9-diazaspiro[5.5]undecan-2-one]",506,14,–,–
"Cc1cn2ccnc(N3CCC4(CCN(Cc5c[nH]c6ccccc56)C4=O)C3)c2n1 (centres unmarked) [Example 5.40, 2-((1H-indol-3-yl)methyl)-7-(2-methylimidazo[1,2-a]pyrazin-8-yl)-2,7-diazaspiro[4.4]nonan-1-one]",188,–,1730,–
"Cc1cnc(N2CCC3(CC2)OCCN(Cc2c[nH]c4ccccc24)C3=O)nc1C [Example 2.24, 4-((1H-indol-3-yl)methyl)-9-(4,5-dimethylpyrimidin-2-yl)-1-oxa-4,9-diazaspiro[5.5]undecan-5-one]",182,–,1650,–
"O=C1N(Cc2c[nH]c3ccccc23)CCC12CCN(c1cc(C(F)(F)F)ncn1)C2 (centres unmarked) [Example 5.17, 2-((1H-Indol-3-yl)methyl)-7-(6-(trifluoromethyl)pyrimidin-4-yl)-2,7-diazaspiro[4.4]nonan-1-one]",1790,49,–,–
"COc1ccnc(N2CCC3(CC2)OCCN(Cc2c[nH]c4ccccc24)C3=O)n1 [Example 2.5, 4-((1H-Indol-3-yl)methyl)-9-(4-methoxypyrimidin-2-yl)-1-oxa-4,9-diazaspiro[5.5]undecan-5-one]",61,–,1550,–
"Cc1cc(C)nc(N2CCC3(CC2)NCCN(Cc2nc(C)oc2-c2ccccc2)C3=O)n1 [Example 1.19, 9-(4,6-Dimethyl-pyrimidin-2-yl)-4-((2-methyl-5-phenyloxazol-4-yl)methyl)-1,4,9-triazaspiro[5.5] undecan-5-one]",250,–,2650,–
"CNC(=O)c1cccc(-c2cn(C)nc2CN2CCNC3(CCN(c4nc(C)cc(C)n4)CC3)C2=O)c1 [Example 1.49, 3-(3-((9-(4,6-Dimethylpyrimidin-2-yl)-5-oxo-1,4,9-triazaspiro[5.5]undecan-4-yl)methyl)-1-methyl-1H-pyrazol-4-yl)-N-methylbenzamide]",–,20,–,38
"COc1ccnc(N2CC[C@]3(CCN(Cc4c[nH]c5ccccc45)C3=O)C2)n1 [Example 5.3, (S)-2-((1H-indol-3-yl)methyl)-7-(4-methoxypyrimidin-2-yl)-2,7-diazaspiro[4.4]nonan-1-one]",103,–,2640,–
"O=C1N(Cc2c[nH]c3ccccc23)CCC12CCN(c1ccnc(-n3ccnc3)n1)C2 (centres unmarked) [Example 5.19, 7-(2-(1H-imidazol-1-yl)pyrimidin-4-yl)-2-((1H-indol-3-yl)methyl)-2,7-diazaspiro[4.4]nonan-1-one]",665,–,1190,–
"Cc1cc(C)nc(N2CCC3(CC2)C(=O)N(Cc2c[nH]c4ccccc24)CCN3C)n1 [Example 1.2, 4-((1H-indol-3-yl)methyl)-9-(4,6-dimethylpyrimidin-2-yl)-1-methyl-1,4,9-triazaspiro[5.5]undecan-5-one]",449,–,3650,–
"Cn1ccc2ccnc(N3CCC4(CCN(Cc5c[nH]c6ccccc56)C4=O)C3)c21 (centres unmarked) [Example 5.32, 2-((1H-indol-3-yl)methyl)-7-(1-methyl-1H-pyrrolo[2,3-c]pyridin-7-yl)-2,7-diazaspiro[4.4]nonan-1-one]",2290,–,4470,–
"Cc1cc(C)nc(N2CCC3(CC2)OCCN(Cc2nn(C)nc2-c2ccccc2)C3=O)n1 [Example 2.12, 9-(4,6-Dimethylpyrimidin-2-yl)-4-((2-methyl-5-phenyl-2H-1,2,3-triazol-4-yl)methyl)-1-oxa-4,9-diazaspiro[5.5]undecan-5-one]",364,16,–,–
"COCc1cccc(-c2ocnc2CN2CCNC3(CCN(c4nc(C)cc(C#N)n4)CC3)C2=O)c1 [Example 1.28, 2-(4-((5-(3-(Methoxymethyl)phenyl)oxazol-4-yl)methyl)-5-oxo-1,4,9-triazaspiro[5.5]undecan-9-yl)-6-methylpyrimidine-4-carbonitrile]",511,33,–,–
"COc1cc(C)nc(N2CCC3(CC2)NCCN(Cc2nc(C)oc2-c2ccccc2)C3=O)n1 [Example 1.23, 9-(4-Methoxy-6-methylpyrimidin-2-yl)-4-((2-methyl-5-phenyloxazol-4-yl)methyl)-1,4,9-triazaspiro[5.5] undecan-5-one]",192,–,2110,–
"COc1ccnc(N2CCC3(CC2)NCCN(Cc2c[nH]c4ccccc24)C3=O)n1 [Example 1.7, 4-((1H-Indol-3-yl)methyl)-9-(4-methoxypyrimidin-2-yl)-1,4,9-triazaspiro[5.5] undecan-5-one]",101,35,–,–
"COc1cc(N2CCC3(CCN(Cc4c[nH]c5ccccc45)C3=O)C2)nc2ccnn12 (centres unmarked) [Example 5.33, 2-((1H-indol-3-yl)methyl)-7-(7-methoxypyrazolo[1,5-a]pyrimidin-5-yl)-2,7-diazaspiro[4.4]nonan-1-one]",–,< 10,–,< 10
"Cc1ccnc(N2CCC3(CCN(Cc4c[nH]c5ccccc45)C3=O)C2)c1 (centres unmarked) [Example 5.28, 2-((1H-indol-3-yl)methyl)-7-(4-methylpyridin-2-yl)-2,7-diazaspiro[4.4]nonan-1-one]",182,34,–,–
"COc1cc(N2CCC3(CCN(Cc4c[nH]c5ccccc45)C3=O)C2)nc(C2CC2)n1 (centres unmarked) [Example 5.21, 2-((1H-indol-3-yl)methyl)-7-(2-cyclopropyl-6-methoxypyrimidin-4-yl)-2,7-diazaspiro[4.4]nonan-1-one]",370,–,1300,–
"Cc1cc(C)nc(N2CCC3(CC2)OCCN(Cc2conc2-c2ccccc2)C3=O)n1 [Example 2.26, 9-(4,6-dimethylpyrimidin-2-yl)-4-((3-phenylisoxazol-4-yl)methyl)-1-oxa-4,9-diazaspiro[5.5]undecan-5-one]",148,–,1180,–
"N#Cc1ccnc(N2CCC3(CC2)COCC(=O)N3Cc2cccc3[nH]ccc23)c1 [Example 8.16, 2-(1-((1H-Indol-4-yl)methyl)-2-oxo-4-oxa-1,9-diazaspiro[5.5]undecan-9-yl)isonicotinonitrile]",1020,< 10,–,–
"COc1ccnc(N2CCC3(CCN(Cc4c[nH]c5ccccc45)C3=O)C2)c1 (centres unmarked) [Example 5.30, 2-((1H-indol-3-yl)methyl)-7-(4-methoxypyridin-2-yl)-2,7-diazaspiro[4.4]nonan-1-one]",193,–,4350,–
"Cc1cnc(N2CCC3(CCN(Cc4c[nH]c5ccccc45)C3=O)C2)s1 (centres unmarked) [Example 5.23, 2-((1H-indol-3-yl)methyl)-7-(5-methylthiazol-2-yl)-2,7-diazaspiro[4.4]nonan-1-one]",645,67,–,–
"Cc1cc(C)nc(N2CCC3(CC2)OCCN(Cc2ccccc2-c2ccco2)C3=O)n1 [Example 2.3, 9-(4,6-Dimethyl-pyrimidin-2-yl)-4-(2-furan-2-yl-benzyl)-1-oxa-4,9-diaza-spiro[5.5]undecan-5-one]",142,–,1100,–
O=C1N(Cc2c[nH]c3ccccc23)CCC12CCCN(c1cnc3ccccc3n1)C2 (centres unmarked) [Example 6.1],639,–,1130,–
"O=C1N(Cc2c[nH]c3ccccc23)CCC12CCN(c1nc3ccccc3o1)CC2 [Example 3.13, 8-Benzooxazol-2-yl-2-(1H-indol-3-ylmethyl)-2,8-diaza-spiro[4.5]decan-1-one]",342,–,342,–
